From US20240138838A1, “SURFACE-MODIFIED ANASTOMOSIS DEVICE” (Washington University, priority 2022, published 2024) come the findings set out here.

The test system of the test is HUVECs. Description: 2D angiogenesis assay, HUVECs on the hydrogel surface. The test is classed as cell-based, human. Here is the method:
Angiogenesis and vascularization assays were adopted to optimize hydrogels with RGD. For the two-dimensional (2D) culture of HUVECs, cells (4×10^4/well in a 96-well plate) were plated on the surface of HA hydrogels (40 μL; HA-SH: 4 mg/mL and PEGDA: 5 mg/mL) with various concentrations of RGD (0, 0.01, 0.1, and 1 mM). Matrigel was used as a positive control. After 24 h, HUVECs were imaged after LIVE/DEAD staining. As for the 3D cell culture, to avoid cell precipitation onto the surface of the plate, the plate was first coated with the hydrogels (40 μL hydrogel; HA-SH: 4 mg/mL, PEGDA: 2 mg/mL, F127-SS-DA: 4 mg/mL; RGD: 0, 0.10, 0.25, and 0.50 mM). Then, HUVECs and hASCs mixed with hydrogel precursor solutions (0.75×10^6/mL hydrogel; 40 μL hydrogel) were plated on top of hydrogels. In addition, both cells were cultured inside hydrogels with F127-SS-DA or F127-DA (40 μL; HA-SH: 4 mg/mL, PEGDA: 2 mg/mL, RGD: 0.1 mM; F127-DA or F127-SS-DA: 2, 4, 8, 10, 20, and 50 mg/mL). The cells were imaged after immunostaining for F-actin. […]
Cell viability was examined with a LIVE/DEAD staining kit and then the images were captured by a Zeiss LSM 880 laser scanning confocal microscope. The cell morphology was also evaluated by immunostaining with Alexa Fluor Phalloidin 568 or 488 for F-actin and 4′,6-diamidino-2-phenylindole dihydrochloride (DAPI, Molecular Probes) for cell nuclei.

On to RGD, for which the “endothelial cell layer on the hydrogel surface” value (RGD at 1 mM) is “supported the formation of a full layer of endothelial cells”. The endothelial cell adhesion result (RGD conjugated to a hyaluronic acid-based hydrogel, FIG. 18) is reported as “improved endothelial cell adhesion in a dose-dependent manner”.
